Source: patent publication US8192962B2, “Processes for detecting toxic substances” (Daikin Industries, Ltd., priority 2001, dated 2012)

Tested on: Unknown protein yeast genes
Assay: DNA chip mRNA expression in yeast, unknown protein yeast genes (Table 1)
Type: cell-based, Saccharomyces cerevisiae S288C
In short: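 Untreated cultures served as reference for log-phase S288C yeast given a growth-inhibiting, non-lethal toxicant dose for 2 h at 25° C. in YPD. Gene expression was measured on a whole-genome DNA chip from Cy3/Cy5-labeled cDNA.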

With `COc1cc(CNC(=O)CCCCC=CC(C)C)ccc1O` [(12), 8-methyl-N-vanillyl-6-nonenamide] the “The level of expressed mRNA in the presence of chemical substance/The level of expressed mRNA in the absence of chemical substance” value (yeast gene YAL053W, incubated two hours with chemical substance) was 0.6, the “The level of expressed mRNA in the presence of chemical substance/The level of expressed mRNA in the absence of chemical substance” value (yeast gene YBL048W) was 1.2 and the “The level of expressed mRNA in the presence of chemical substance/The level of expressed mRNA in the absence of chemical substance” value (yeast gene YBL107C) was 1.4. For the same compound, the “The level of expressed mRNA in the presence of chemical substance/The level of expressed mRNA in the absence of chemical substance” value (yeast gene YCR043C) was 0.6, the “The level of expressed mRNA in the presence of chemical substance/The level of expressed mRNA in the absence of chemical substance” value (yeast gene YCR102C) was 0.5 and the “The level of expressed mRNA in the presence of chemical substance/The level of expressed mRNA in the absence of chemical substance” value (yeast gene YDL072C, incubated two hours with chemical substance) was 1.2. The “The level of expressed mRNA in the presence of chemical substance/The level of expressed mRNA in the absence of chemical substance” value (yeast gene YDL204W, incubated two hours with chemical substance) was 0.9, the “The level of expressed mRNA in the presence of chemical substance/The level of expressed mRNA in the absence of chemical substance” value (yeast gene YDL222C, incubated two hours with chemical substance) was 1.0 and the “The level of expressed mRNA in the presence of chemical substance/The level of expressed mRNA in the absence of chemical substance” value (yeast gene YDR330W, incubated two hours with chemical substance) was 1.0. The “The level of expressed mRNA in the presence of chemical substance/The level of expressed mRNA in the absence of chemical substance” value (yeast gene YDR411C, incubated two hours with chemical substance) was 1.5, the “The level of expressed mRNA in the presence of chemical substance/The level of expressed mRNA in the absence of chemical substance” value (yeast gene YDR511W, incubated two hours with chemical substance) was 0.8 and the “The level of expressed mRNA in the presence of chemical substance/The level of expressed mRNA in the absence of chemical substance” value (yeast gene YDR545W, incubated two hours with chemical substance) was 0.9. The “The level of expressed mRNA in the presence of chemical substance/The level of expressed mRNA in the absence of chemical substance” value (yeast gene YEL001C, incubated two hours with chemical substance) was 1.1, the “The level of expressed mRNA in the presence of chemical substance/The level of expressed mRNA in the absence of chemical substance” value (yeast gene YER004W, incubated two hours with chemical substance) was 1.7 and the “The level of expressed mRNA in the presence of chemical substance/The level of expressed mRNA in the absence of chemical substance” value (yeast gene YER035W, incubated two hours with chemical substance) was 1.1. The “The level of expressed mRNA in the presence of chemical substance/The level of expressed mRNA in the absence of chemical substance” value (yeast gene YER079W, incubated two hours with chemical substance) was 0.9, the “The level of expressed mRNA in the presence of chemical substance/The level of expressed mRNA in the absence of chemical substance” value (yeast gene YER106W, incubated two hours with chemical substance) was 0.9 and the “The level of expressed mRNA in the presence of chemical substance/The level of expressed mRNA in the absence of chemical substance” value (yeast gene YER158C, incubated two hours with chemical substance) was 1.0. For the same compound, the “The level of expressed mRNA in the presence of chemical substance/The level of expressed mRNA in the absence of chemical substance” value (yeast gene YER163C, incubated two hours with chemical substance) was 1.0, the “The level of expressed mRNA in the presence of chemical substance/The level of expressed mRNA in the absence of chemical substance” value (yeast gene YER175C, incubated two hours with chemical substance) was 0.9 and the “The level of expressed mRNA in the presence of chemical substance/The level of expressed mRNA in the absence of chemical substance” value (yeast gene YFL006W, incubated two hours with chemical substance) was 1.2. For the same compound, the “The level of expressed mRNA in the presence of chemical substance/The level of expressed mRNA in the absence of chemical substance” value (yeast gene YFL010C, incubated two hours with chemical substance) was 1.5, the “The level of expressed mRNA in the presence of chemical substance/The level of expressed mRNA in the absence of chemical substance” value (yeast gene YFL024C) was 0.8 and the “The level of expressed mRNA in the presence of chemical substance/The level of expressed mRNA in the absence of chemical substance” value (yeast gene YFL032W, incubated two hours with chemical substance) was 0.7. The “The level of expressed mRNA in the presence of chemical substance/The level of expressed mRNA in the absence of chemical substance” value (yeast gene YGL037C, incubated two hours with chemical substance) was 0.8, the “The level of expressed mRNA in the presence of chemical substance/The level of expressed mRNA in the absence of chemical substance” value (yeast gene YGL047W, incubated two hours with chemical substance) was 1.1 and the “The level of expressed mRNA in the presence of chemical substance/The level of expressed mRNA in the absence of chemical substance” value (yeast gene YGL053W, incubated two hours with chemical substance) was 1.3. The “The level of expressed mRNA in the presence of chemical substance/The level of expressed mRNA in the absence of chemical substance” value (yeast gene YGL121C) was 1.6, the “The level of expressed mRNA in the presence of chemical substance/The level of expressed mRNA in the absence of chemical substance” value (yeast gene YGL199C, incubated two hours with chemical substance) was 0.9 and the “The level of expressed mRNA in the presence of chemical substance/The level of expressed mRNA in the absence of chemical substance” value (yeast gene YGR101W, incubated two hours with chemical substance) was 1.0. For the same compound, the “The level of expressed mRNA in the presence of chemical substance/The level of expressed mRNA in the absence of chemical substance” value (yeast gene YGR110W) was 1.4, the “The level of expressed mRNA in the presence of chemical substance/The level of expressed mRNA in the absence of chemical substance” value (yeast gene YGR130C, incubated two hours with chemical substance) was 0.7 and the “The level of expressed mRNA in the presence of chemical substance/The level of expressed mRNA in the absence of chemical substance” value (yeast gene YGR154C, incubated two hours with chemical substance) was 0.9. For the same compound, the “The level of expressed mRNA in the presence of chemical substance/The level of expressed mRNA in the absence of chemical substance” value (yeast gene YGR221C, incubated two hours with chemical substance) was 1.6, the “The level of expressed mRNA in the presence of chemical substance/The level of expressed mRNA in the absence of chemical substance” value (yeast gene YHL042W) was 0.6 and the “The level of expressed mRNA in the presence of chemical substance/The level of expressed mRNA in the absence of chemical substance” value (yeast gene YHR138C, incubated two hours with chemical substance) was 1.8. For the same compound, the “The level of expressed mRNA in the presence of chemical substance/The level of expressed mRNA in the absence of chemical substance” value (yeast gene YHR199C, incubated two hours with chemical substance) was 1.1, the “The level of expressed mRNA in the presence of chemical substance/The level of expressed mRNA in the absence of chemical substance” value (yeast gene YIL012W) was 0.6 and the “The level of expressed mRNA in the presence of chemical substance/The level of expressed mRNA in the absence of chemical substance” value (yeast gene YIL023C, incubated two hours with chemical substance) was 0.9. The “The level of expressed mRNA in the presence of chemical substance/The level of expressed mRNA in the absence of chemical substance” value (yeast gene YIL041W, incubated two hours with chemical substance) was 1.0, the “The level of expressed mRNA in the presence of chemical substance/The level of expressed mRNA in the absence of chemical substance” value (yeast gene YIL057C) was 0.6 and the “The level of expressed mRNA in the presence of chemical substance/The level of expressed mRNA in the absence of chemical substance” value (yeast gene YIL087C, incubated two hours with chemical substance) was 1.1. For the same compound, the “The level of expressed mRNA in the presence of chemical substance/The level of expressed mRNA in the absence of chemical substance” value (yeast gene YIL089W) was 0.6, the “The level of expressed mRNA in the presence of chemical substance/The level of expressed mRNA in the absence of chemical substance” value (yeast gene YIL102C) was 0.6 and the “The level of expressed mRNA in the presence of chemical substance/The level of expressed mRNA in the absence of chemical substance” value (yeast gene YJL057C, incubated two hours with chemical substance) was 1.0. For the same compound, the “The level of expressed mRNA in the presence of chemical substance/The level of expressed mRNA in the absence of chemical substance” value (yeast gene YJL066C, incubated two hours with chemical substance) was 1.0, the “The level of expressed mRNA in the presence of chemical substance/The level of expressed mRNA in the absence of chemical substance” value (yeast gene YJL082W, incubated two hours with chemical substance) was 1.3 and the “The level of expressed mRNA in the presence of chemical substance/The level of expressed mRNA in the absence of chemical substance” value (yeast gene YJL151C, incubated two hours with chemical substance) was 1.3. For the same compound, the “The level of expressed mRNA in the presence of chemical substance/The level of expressed mRNA in the absence of chemical substance” value (yeast gene YJL152W, incubated two hours with chemical substance) was 1.0, the “The level of expressed mRNA in the presence of chemical substance/The level of expressed mRNA in the absence of chemical substance” value (yeast gene YJL161W, incubated two hours with chemical substance) was 1.0 and the “The level of expressed mRNA in the presence of chemical substance/The level of expressed mRNA in the absence of chemical substance” value (yeast gene YJL171C, incubated two hours with chemical substance) was 1.0. For the same compound, the “The level of expressed mRNA in the presence of chemical substance/The level of expressed mRNA in the absence of chemical substance” value (yeast gene YJR008W, incubated two hours with chemical substance) was 1.3, the “The level of expressed mRNA in the presence of chemical substance/The level of expressed mRNA in the absence of chemical substance” value (yeast gene YJR054W, incubated two hours with chemical substance) was 0.9 and the “The level of expressed mRNA in the presence of chemical substance/The level of expressed mRNA in the absence of chemical substance” value (yeast gene YKL071W) was 1.0.
